From patent US20040023994A1 (priority 2002, published 2004)

How the values were obtained:
MDA-MB-435 = details: MDA-MB-435, Breast, NCI database, cited from earlier work; for CC50: read-out: LC50 (the source's name)
NCI-H522 = details: NCI-H522, Non-Small Cell Lung, 48 h
TK-10 = format: cell-based; details: TK-10, Renal, 48 h
DU-145 = format: cell-based; details: DU-145, Prostate, 48 h
HL-60(TB) = test: cells; details: Homo sapiens, HL-60, 48 h
[1] = Homo sapiens, read-out: LC50 (the source's name)

SMILES: Sc1ncnc2nc[nH]c12 [6-MP, 6-mercaptopurine]
- GI50 (MDA-MB-435): 1400 nM
- TGI (MDA-MB-435): >100000 nM
- CC50 (MDA-MB-435): > 100000 nM

SMILES: CC(=O)C=CSc1nc(N)nc2nc[nH]c12 [trans-AVTG, 6-(2-acetylvinylthio) guanine]
- GI50 (NCI-H522): 20 nM
- TGI (NCI-H522): 50 nM
- CC50 (NCI-H522; read-out: LC50): 8280 nM
- GI50 (MALME-3M; Melanoma, 48 h): 370 nM
- TGI (MALME-3M; Melanoma, 48 h): 3070 nM
- CC50 (MALME-3M; read-out: LC50, Melanoma, 48 h): 29300 nM

SMILES: Nc1nc2nc[nH]c2c(=S)[nH]1 [6-TG, 6-thioguanine]
- GI50 (MDA-MB-435): 840 nM
- TGI (MDA-MB-435): 31900 nM
- CC50 (MDA-MB-435): > 100000 nM

SMILES: CC(=O)C=CSc1ncnc2nc[nH]c12 [cis-AVTP, 6-(2-acetylvinylthio) purine]
- GI50 (TK-10; Homo sapiens): 30 nM
- CC50 (TK-10; [1]): 13900 nM
- TGI (TK-10): 640 nM
- TGI (DU-145): 3970 nM
- GI50 (DU-145; Homo sapiens): 1320 nM
- CC50 (DU-145; [1]): 24400 nM
- GI50 (HL-60(TB)): 490 nM
- CC50 (HL-60(TB); read-out: LC50): > 100000 nM
